Reference: ChEMBL document CHEMBL4823276, “Comparative studies on the substrate specificity and defucosylation activity of three α-l-fucosidases using synthetic fucosylated glycopeptides and glycoproteins as substrates” (Bioorg Med Chem, 2021)

Tests used:
Assay type in all cases: ADME; call rule not given here
[1] = Substrate activity at recombinant His-tagged Lactobacillus casei alpha L-fucosidase expressed in Escherichia coli […] assessed as formation of p-nitrophenyl products at 5 mM measured by UV spectrometer assay; settings: lacticaseibacillus casei, 5000 µM
[2] = Substrate activity at recombinant His-tagged Bacteroides fragilis alpha L-fucosidase expressed in Escherichia coli BL21(DE3) assessed as formation of p-nitrophenyl products at 5 mM measured by UV spectrometer assay; settings: 5000 µM
[3] = Substrate activity at recombinant His-tagged Bacteroides fragilis alpha L-fucosidase expressed in Escherichia coli BL21(DE3) assessed as de-fucosylation of N-glycan at 5 mg/ml measured after 21 hrs by LC/MS analysis
[4] = Substrate activity at recombinant His-tagged Lactobacillus casei alpha L-fucosidase expressed in Escherichia coli […] assessed as de-fucosylation of N-glycan at 5 mg/ml measured after 21 hrs by LC/MS analysis; settings: lacticaseibacillus casei

Row | Activity [1] | Activity [2] | Activity [3] | Activity [4] | Compound
1 | Not Active | Active | – | – | C[C@@H]1O[C@@H](Oc2ccc([N+](=O)[O-])cc2)[C@@H](O)[C@H](O)[C@@H]1O
2 | – | – | Not Active | Not Active | CC(=O)N[C@@H]1[C@@H](O)[C@H](O[C@@H]2O[C@H](CO)[C@@H](O[C@@H]3O[C@H](CO[C@H]4O[C@H](CO)[C@@H](O)[C@H](O)[C@@H]4O[C@@H]4O[C@H](CO[C@@H]5O[C@H](CO[C@]6(C(=O)O)C[C@H](O)[C@@H](NC(C)=O)C([C@H](O)[C@H](O)CO)O6)[C@H](O)[C@H](O)[C@H]5O)[C@@H](O)[C@H](O)[C@H]4NC(C)=O)[C@@H](O)[C@H](O[C@H]4O[C@H](CO)[C@@H](O)[C@H](O)[C@@H]4O[C@@H]4O[C@H](CO)[C@@H](O[C@@H]5O[C@H](CO[C@]6(C(=O)O)C[C@H](O)[C@@H](NC(C)=O)C([C@H](O)[C@H](O)CO)O6)[C@H](O)[C@H](O)[C@H]5O)[C@H](O)[C@H]4NC(C)=O)[C@@H]3O)[C@H](O)[C@H]2NC(C)=O)[C@@H](CO[C@H]2O[C@H](C)[C@H](O)[C@H](O)[C@H]2O)O[C@H]1NC(=O)CNC(=O)C[C@H](NC(=O)[C@H](CCC(N)=O)NC(=O)CN)C(=O)N[C@@H](CC(=O)O)C(=O)N[C@H](C(=O)N[C@@H](CO)C(=O)N[C@@H](CCC(N)=O)C(=O)N[C@H](C(=O)N[C@@H](CO)C(=O)N[C@@H](CO)C(=O)N1CCC[C@H]1C(=O)N[C@@H](CO)C(=O)N[C@@H](CC(C)C)C(=O)N1CCC[C@H]1C(=O)N[C@@H](CCCCN)C(=O)N[C@H](C(=O)NCC(=O)NCC(=O)N[C@@H](CO)C(=O)O)[C@@H](C)O)[C@@H](C)O)[C@@H](C)O (some centres undefined)
